Results published in patent publication US6469052B2, “Compounds for the photodecontamination of pathogens in blood” (Cerus Corporation, priority 1993, dated 2002).

Legend:
[1] = test system: HIV-1; conditions: concentrations of 64 μM of compound or higher
Description: Pathogen inactivation efficiency of several compounds of the present invention was evaluated by examining the ability of the compounds to inactivate cell-free virus (HIV). Inactivation of cell-free HIV was performed as follows.
As in the R17 assay, small aliquots of the compounds listed in TABLES 10 and 11, below, at the concentrations listed in the table, were added to stock HIV-1 to a total of 0.5 mL. The stock HIV (10^5-10^7 plaque forming units/mL) was in DMEM/15% FBS. […] Controls included HIV-1 stock only, HIV-1 plus UVA only, and HIV-1 plus the highest concentration of each psoralen tested, with no UVA. Post irradiation, all samples were stores frozen at −70° C. until assayed for infectivity by a microtiter plaque assay. Aliquots for measurement of residual HIV infectivity in the samples treated with a compound of the present invention were withdrawn and cultured.
Residual HIV infectivity was assayed using an MT-2 infectivity assay. […] After 24 to 48 hours, the red fluorescence-stained microplaques were visualized by placing the plates on an 8,000 μW/cm^2 304 nm UV light box (Fotodyne, Inc., New Berlin, Wis.). The plaques were counted at a magnification of ×20 to ×25 through a stereomicroscope.

[2] = test system: Salmonella typhimurium TA1537; experiment: Ames assay (dark mutagenicity), strain TA1537; conditions: TA1537 in the presence of S9
Description: The second property that is important in testing a compound for use in methods of the present invention is mutagenicity. The most widely used mutagen/carcinogen screening assay is the Ames test. This assay is described by D. M. Maron and B. N. Ames in Mutation Research 113: 173 ( 1983) and a specific screen is described in detail in Example 17, below. The Ames test utilizes several unique strains of Salmonella typhimurium that are histidine- dependent for growth and that lack the usual DNA repair enzymes. The frequency of normal mutations that render the bacteria independent of histidine (i.e., the frequency of spontaneous revertants) is low. The test allows one to evaluate the impact of a compound on this revertant frequency.
In this example the compounds of the present invention are tested for their dark mutagenicity using an Ames assay. The procedures used for the Salmonella mutagenicity test as described in detail by Maron and Ames were followed exactly. Maron, D. M. and B. N. Ames, Mutation Research 113: 173 ( 1983). A brief description for each procedure is given here. The tester strains TA97a, TA98, TA100, TA102, TA1537 and TA1538 were obtained from Dr. Ames. TA97a, TA98, TA1537 and TA1538 are frameshift tester strains. TA100 and TA102 are base-substitution tester strains. Upon receipt each strain was cultured under a variety of conditions to confirm the genotypes specific to the strains.
The first tests done with the strains were to determine the range of spontaneous reversion for each of the strains. With each mutagenicity experiment the spontaneous reversion of the tester strains to histidine independence was measured and expressed as the number of spontaneous revertants per plate. This served as the background controls.
For all experiments, the pre-incubation procedure was used. In this procedure one vial of each tester strain was thawed and 20 μL of this culture was added to 6 mL of Oxoid Nutrient Broth #2. This solution was allowed to shake for 10 hours at 37° C. In the pre-incubation procedure, 0.1 mL of this overnight culture was added to each of the required number of sterile test tubes. To half of the tubes 0.5 mL of a 10% S-9 solution containing Aroclor 1254 induced rat liver extract (Molecular Toxicology Inc., Annapolis, Md.), and MgCl2, KCl, glucose-6-phosphate, NADP, and sodium phosphate buffer (Sigma, St. Louis, Mo.) were added. To the other half of the tubes 0.5 mL of 0.2M sodium phospate buffer, pH 7.4, was used in place of the S-9 mixture (the -S9 samples). Finally 0.1 mL of the test solution containing either 0, 0.1, 0.5, 1, 5, 10, 50, 100, 250, or 500 μg/mL of the test compound was added. The 0.7 mL mixture was vortexed and then pre-incubated while shaking for 20 minutes at 37° C. After shaking, 2 mL of molten top agar supplemented with histidine and biotin were added to the 0.7 mL mixture and immediately poured onto a minimal glucose agar plate (volume of base agar was 20 mL). The top agar was allowed 30 minutes to solidify and then the plates were inverted and incubated for 44 hours at 37° C. After incubation the number of revertant colonies on each plate were counted. […] (“n” represents the number of replicates performed for each data point.)
Maron and Ames (1983) describe the conflicting views with regard to the statisical treatment of data generated from the test.

Cc1oc2c(C)c3oc(=O)cc(C)c3cc2c1COCCN [Compound 2, 4′-(4-amino-2-oxa)butyl-4,5′,8-trimethylpsoralen]
HIV inactivation activity compared with AMT [1]: significantly more active than AMT

Cc1oc2c(C)c3oc(=O)cc(C)c3cc2c1CNCCCCN [Compound 6, 4′-(6-amino-2-aza)hexyl-4,5′,8-trimethylpsoralen]
concentration showing a response [2]: 50 μg/plate
